# Measurements published in US11919902B2, “Aryl-bipyridine amine derivatives as phosphatidylinositol phosphate kinase inhibitors” (HiberCell, Inc., priority 2017, dated 2024).
# How the values were obtained:
# GST tagged PIP4KtypeIIB = molecular target: T1, GST tagged PIP4KtypeIIB (Homo sapiens, UniProt P78356); assay: Trans-FI P kinase assay PIP4K2B (PIP4KtypeIIB inhibition assay); assay type: biochemical; settings: Table 4; compounds listed under IC50 range headings; 100 uM GTP, 5 nM PIP4KIIB; read-out: Trans-FI P kinase assays: PIP4K2B IC50
# T1 construct: made in house; host or cells: E. coli
# T1 sequence (P78356 1-416): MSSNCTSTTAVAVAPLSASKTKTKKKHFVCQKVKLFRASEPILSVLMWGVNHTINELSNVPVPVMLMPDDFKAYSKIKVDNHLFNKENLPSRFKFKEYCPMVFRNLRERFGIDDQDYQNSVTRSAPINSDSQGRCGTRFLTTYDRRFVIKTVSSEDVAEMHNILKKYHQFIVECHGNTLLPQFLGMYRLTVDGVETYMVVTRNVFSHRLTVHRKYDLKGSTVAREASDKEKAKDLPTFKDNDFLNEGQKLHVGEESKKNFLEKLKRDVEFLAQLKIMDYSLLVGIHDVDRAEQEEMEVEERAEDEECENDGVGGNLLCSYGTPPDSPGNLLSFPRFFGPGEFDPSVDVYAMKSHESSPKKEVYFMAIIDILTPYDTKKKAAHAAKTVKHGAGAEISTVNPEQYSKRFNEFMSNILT
# Method in brief: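 Purified GST-PIP4KIIB (5 nM final), 1 h preincubation with compound at 27 C, then 2 h reaction with 100 uM GTP and 80 uM PI5P plus DOPE carrier lipid in pH 7.3 HEPES/MgCl2/Triton buffer with 5% DMSO. GDP read by Transcreener FI fluorescence against a calibration curve; IC50 from % no-inhibitor activity vs log concentration.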
# GST tagged PIP4KtypeIIA = molecular target: T2, GST tagged PIP4KtypeIIA (Homo sapiens, UniProt P48426); assay: ADP-glo kinase assay PIP4K 2A (PIP4KtypeIIA inhibition assay); assay type: biochemical; settings: Table 3; compounds listed under IC50 range headings; 10 uM ATP, 0.5 nM PIP4KIIA
# T2 construct: made in house; host or cells: E. coli
# T2 sequence (P48426 1-406): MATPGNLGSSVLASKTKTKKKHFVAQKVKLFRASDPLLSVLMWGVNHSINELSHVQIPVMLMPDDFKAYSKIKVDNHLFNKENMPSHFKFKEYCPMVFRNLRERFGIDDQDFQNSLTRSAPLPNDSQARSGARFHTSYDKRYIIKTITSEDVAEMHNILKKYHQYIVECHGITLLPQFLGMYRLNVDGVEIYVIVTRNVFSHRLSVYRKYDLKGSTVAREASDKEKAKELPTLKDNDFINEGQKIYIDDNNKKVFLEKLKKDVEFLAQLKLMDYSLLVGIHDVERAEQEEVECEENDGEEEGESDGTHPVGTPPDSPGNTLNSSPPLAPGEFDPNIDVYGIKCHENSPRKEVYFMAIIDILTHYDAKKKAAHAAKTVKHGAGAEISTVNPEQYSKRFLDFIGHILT
# Method in brief: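 E. coli-expressed GST-PIP4KtypeIIA (0.5 nM final) was preincubated 1 h at 27 °C with compound (up to 4.8 μM, 5% DMSO) in PI5P/DOPE lipid in 50 mM HEPES pH 7.3 with 10 mM MgCl2. The reaction was started with 10 μM ATP (final) and run 1 h. ADP was read by ADP-Glo luminescence via a calibration curve, and IC50 was taken from % residual activity.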
Structure (SMILES),IC50 (GST tagged PIP4KtypeIIB),IC50 (GST tagged PIP4KtypeIIA)
"Cc1cccc2c1CC(=O)N2c1ccc(-c2cncc(-c3ccnc4c3cc3n4CCN(C)C3=O)c2)cc1 [Example 208, 7-methyl-4-(5-(4-(4-methyl-2-oxoindolin-1-yl)phenyl)pyridin-3-yl)-8,9-dihydropyrido[3′,2′:4,5]pyrrolo[1,2-a]pyrazin-6(7H)-one]",> 5000 nM,> 5000 nM
"Cc1cc(N2CCCC2=O)ccc1-c1cncc(-c2cn(C)c3ncc(C(C)O)cc23)c1 (stereo not drawn) [Example 197, 1-(4-(5-(5-(1-hydroxyethyl)-1-methyl-1H-pyrrolo[2,3-b]pyridin-3-yl)pyridin-3-yl)-3-methylphenyl)pyrrolidin-2-one]",100 to 1000 nM,100 to 1000 nM
"CCc1c(C)[nH]c2c(-c3cncc(-c4ccc(N5CCCC5=O)cc4)c3)cnn2c1=O [Example 288, 6-ethyl-5-methyl-3-(5-(4-(2-oxopyrrolidin-1-yl)phenyl)pyridin-3-yl)pyrazolo[1,5-a]pyrimidin-7(4H)-one]",100 to 1000 nM,100 to 1000 nM
"C[C@H]1CC(=O)N(c2ccc(-c3cncc(-c4ccnc5c4cc4n5CCN(C)C4=O)c3)cc2)C1 [Example 199, (S)-7-methyl-4-(5-(4-(4-methyl-2-oxopyrrolidin-1-yl)phenyl)pyridin-3-yl)-8,9-dihydropyrido[3′,2′:4,5]pyrrolo[1,2-a]pyrazin-6(7H)-one]",10 to 100 nM,100 to 1000 nM
"CCc1ccc2c(c1)N(c1ccc(-c3cncc(-c4ccnc5c4cc4n5CCN(C)C4=O)c3)cc1)C(=O)C2 [Example 151, 4-(5-(4-(6-ethyl-2-oxoindolin-1-yl)phenyl)pyridin-3-yl)-7-methyl-8,9-dihydropyrido[3′,2′:4,5]pyrrolo[1,2-a]pyrazin-6 (7H)-one]",> 5000 nM,> 5000 nM
"CN(C)C(=O)c1ccc(-c2cc(-c3ccnc4[nH]c(C(=O)NCC(N)=O)cc34)cnc2N)nc1 [Example 144, N-(2-amino-2-oxoethyl)-4-(2′-amino-5-(dimethylcarbamoyl)-[2,3′-bipyridin]-5′-yl)-1H-pyrrolo[2,3-b]pyridine-2-carboxamide]",10 to 100 nM,100 to 1000 nM
"COC(=O)c1cc2c(-c3cncc(-c4ccc(N5CCCC5=O)cc4)c3)c(C)cnc2[nH]1 [Example 290, methyl 5-methyl-4-(5-(4-(2-oxopyrrolidin-1-yl)phenyl)pyridin-3-yl)-1H-pyrrolo[2,3-b]pyridine-2-carboxylate]",100 to 1000 nM,100 to 1000 nM
"CC(C)c1c(-c2cncc(-c3ccc(N4CCCC4=O)cc3)c2)c2cc(C(=O)N(C)C)cnc2n1C [Example 266, 2-isopropyl-N,N,1-trimethyl-3-(5-(4-(2-oxopyrrolidin-1-yl)phenyl)pyridin-3-yl)-1H-pyrrolo[2,3-b]pyridine-5-carboxamide]",1000 to 2500 nM,2500 to 5000 nM
"O=C(Nc1nccc(-c2cncc(-c3ccc(N4CCCC4=O)cc3)c2)n1)C1CCC1 [Example 287, N-(4-(5-(4-(2-oxopyrrolidin-1-yl)phenyl)pyridin-3-yl)pyrimidin-2-yl)cyclobutanecarboxamide]",100 to 1000 nM,100 to 1000 nM
"O=C(NCc1cccnc1)c1cc2c(-c3cncc(-c4ccc(N5CCCC5=O)cc4)c3)ccnc2[nH]1 [Example 238, 4-(5-(4-(2-oxopyrrolidin-1-yl)phenyl)pyridin-3-yl)-N-(pyridin-3-ylmethyl)-1H-pyrrolo[2,3-b]pyridine-2-carboxamide]",10 to 100 nM,100 to 1000 nM
"O=C1CCCN1c1ccc(-c2cncc(-c3c4n(c5ncncc35)CCC4)c2)cc1 [Example 352, 1-(4-(5-(7,8-dihydro-6H-pyrimido[5,4-b]pyrrolizin-5-yl)pyridin-3-yl)phenyl)pyrrolidin-2-one]",10 to 100 nM,10 to 100 nM

# The next lines start with the values.
IC50 (GST tagged PIP4KtypeIIB),IC50 (GST tagged PIP4KtypeIIA),Structure (SMILES)
10 to 100 nM,100 to 1000 nM,"O=C(NCCc1cnccn1)c1cc2c(-c3cncc(-c4ccc(N5CCCC5=O)cc4)c3)ccnc2[nH]1 [Example 255, 4-(5-(4-(2-oxopyrrolidin-1-yl)phenyl)pyridin-3-yl)-N-(2-(pyrazin-2-yl)ethyl)-1H-pyrrolo[2,3-b]pyridine-2-carboxamide]"
10 to 100 nM,100 to 1000 nM,"CN(C)C(=O)c1ccc(-c2cc(-c3ccnc4[nH]c(C(=O)N5CCCC5)cc34)cnc2N)nc1 [Example 141, 2′-amino-N,N-dimethyl-5′-(2-(pyrrolidine-1-carbonyl)-1H-pyrrolo[2,3-b]pyridin-4-yl)-[2,3′-bipyridine]-5-carboxamide]"
10 to 100 nM,1000 to 2500 nM,"CN(C)C(=O)c1ccc(-c2cc(-c3ccnc4[nH]c(C(=O)NC5CCNC5=O)cc34)cnc2N)nc1 (stereo not drawn) [Example 149, 4-(2′-amino-5-(dimethylcarbamoyl)-[2,3′-bipyridin]-5′-yl)-N-(2-oxopyrrolidin-3-yl)-1H-pyrrolo[2,3-b]pyridine-2-carboxamide]"
10 to 100 nM,100 to 1000 nM,"O=C(NCCc1cccnc1)c1cc2c(-c3cncc(-c4ccc(N5CCCC5=O)cc4)c3)ccnc2[nH]1 [Example 237, 4-(5-(4-(2-oxopyrrolidin-1-yl)phenyl)pyridin-3-yl)-N-(2-(pyridin-3-yl)ethyl)-1H-pyrrolo[2,3-b]pyridine-2-carboxamide]"
10 to 100 nM,10 to 100 nM,"O=C1CCCN1c1ccc(-c2cncc(-c3c4n(c5ncc(Br)cc35)CCC4)c2)cc1 [Example 353, 1-(4-(5-(3-bromo-7,8-dihydro-6H-pyrido[3,2-b]pyrrolizin-5-yl)pyridin-3-yl)phenyl)pyrrolidin-2-one]"
10 to 100 nM,100 to 1000 nM,"CN(C)C(=O)c1ccc(-c2cc(-c3ccnc4[nH]c(C(=O)N5CC6(COC6)C5)cc34)cnc2N)nc1 [Example 147, 5′-(2-(2-oxa-6-azaspiro[3.3]heptane-6-carbonyl)-1H-pyrrolo[2,3-b]pyridin-4-yl)-2′-amino-N,N-dimethyl-[2,3′-bipyridine]-5-carboxamide]"
10 to 100 nM,100 to 1000 nM,"CN(C)C(=O)c1ccc(-c2cc(-c3ccnc4[nH]c(C(=O)NC5CCOCC5)cc34)cnc2N)nc1 [Example 137, 4-(2′-amino-5-(dimethylcarbamoyl)-[2,3′-bipyridin]-5′-yl)-N-(tetrahydro-2H-pyran-4-yl)-1H-pyrrolo[2,3-b]pyridine-2-carboxamide]"
10 to 100 nM,100 to 1000 nM,"O=C(NC1CC1c1ccccc1)c1cc2c(-c3cncc(-c4ccc(N5CCCC5=O)cc4)c3)ccnc2[nH]1 (stereo not drawn) [Example 264, 4-(5-(4-(2-oxopyrrolidin-1-yl)phenyl)pyridin-3-yl)-N-(2-phenylcyclopropyl)-1H-pyrrolo[2,3-b]pyridine-2-carboxamide]"
10 to 100 nM,100 to 1000 nM,"COCCNC(=O)c1cc2c(-c3cncc(-c4ccc(N5CCCC5=O)cc4)c3)ccnc2[nH]1 [Example 228, N-(2-methoxyethyl)-4-(5-(4-(2-oxopyrrolidin-1-yl)phenyl)pyridin-3-yl)-1H-pyrrolo[2,3-b]pyridine-2-carboxamide]"
10 to 100 nM,100 to 1000 nM,"O=C(NCCc1cncs1)c1cc2c(-c3cncc(-c4ccc(N5CCCC5=O)cc4)c3)ccnc2[nH]1 [Example 298, 4-(5-(4-(2-oxopyrrolidin-1-yl)phenyl)pyridin-3-yl)-N-(2-(thiazol-5-yl)ethyl)-1H-pyrrolo[2,3-b]pyridine-2-carboxamide]"
10 to 100 nM,> 5000 nM,"O=C(NCc1nc2ccccc2o1)c1cc2c(-c3cncc(-c4ccc(N5CCCC5=O)cc4)c3)ccnc2[nH]1 [Example 245, N-(benzo[d]oxazol-2-ylmethyl)-4-(5-(4-(2-oxopyrrolidin-1-yl)phenyl)pyridin-3-yl)-1H-pyrrolo[2,3-b]pyridine-2-carboxamide]"
10 to 100 nM,100 to 1000 nM,"CC(C)CNC(=O)c1cc2c(-c3cncc(-c4ccc(N5CCCC5=O)cc4)c3)ccnc2[nH]1 [Example 234, N-isobutyl-4-(5-(4-(2-oxopyrrolidin-1-yl)phenyl)pyridin-3-yl)-1H-pyrrolo[2,3-b]pyridine-2-carboxamide]"
10 to 100 nM,100 to 1000 nM,"CN(C)C(=O)c1ccc(-c2cc(-c3ccnc4[nH]c(C(=O)NCCc5ncc[nH]5)cc34)cnc2N)nc1 [Example 150, N-(2-(1H-imidazol-2-yl)ethyl)-4-(2′-amino-5-(dimethylcarbamoyl)-[2,3′-bipyridin]-5′-yl)-1H-pyrrolo[2,3-b]pyridine-2-carboxamide]"
